{
  "source": "patent US20250177421A1",
  "about": "“METHOD FOR PREVENTING OR TREATING HEARING LOSS” (MACKAY MEDICAL COLLEGE, priority 2022, published 2025)",
  "key": {"aging mice": {"tested_on": "aging mice", "assay": "ABR hearing threshold, age-related hearing loss (ARHL) mouse model", "format": "in vivo", "conditions": "IP6 drink group (2% IP6 in drinking water for 10 months), 12-month-old mice"}, "cisplatin-injected mice [1]": {"tested_on": "cisplatin-injected mice", "assay": "Loss of outer hair cells (OHCs) count in cochlear tissues, cisplatin-induced SNHL in mice", "format": "in vivo", "experimental": "(§1) The used procedures followed the protocol reported by Wu et al.^[3]. Inositol hexaphosphate (IP6) obtained from Sigma (USA) was dissolved in ddH2O, and the doses given to the experimental mice intraperitoneally were 40 mg/kg and 80 mg/kg (100 μL of IP6). […] The mice of the control group received only phosphate-buffered saline (PBS, 100 μL).\nExperimental mice were anesthetized, and their cochlear tissues were isolated and dissected. For whole-mount dissection, the protocol detailed by Neal et al. was followed^[5]. In brief, the cochlea was decalcified for 1 hour using a decalcification solution purchased from Apex Engineering (Aurora, IL, USA). The excess temporal bone around the cochlea was trimmed, and the cochlea was bisected along the midmodiolar plane and then submerged in phosphate buffered saline (PBS). A series of cuts through the modiolus separated the half-turns from one another. […]\nFor the loss of OHCs counts, hair cells (HCs) were counterstained with phalloidin, Myo7A and DAPI stainings. […] The images at three randomly-selected regions (300 μm length) in the apical, middle, and basal cochlear turns were acquired by using the same apparatus, and the loss of OHCs was manually counted. Average loss of OHCs was then calculated in apex, middle and base regions, respectively^[6]. Fluorescent images were taken with a Leica SP8 confocal fluorescence microscope. […]"}, "[2]": {"tested_on": "kanamycin/furosemide-injected mice", "assay": "ABR hearing threshold, kanamycin/furosemide-induced SNHL in mice", "format": "in vivo", "conditions": "IP6 80 mg/kg or fucoxanthin 60 mg/kg IP for 5 consecutive days", "experimental": "For the kanamycin-induced SNHL in mice, the schematic protocol for the dosing and timing of kanamycin, furosemide, IP6 and/or fucoxanthin was presented in FIG. 1B. Kanamycin (Sigma Aldrich, USA) was dissolved in PBS, and kanamycin (1 mg/g) and furosemide (0.1 mg/g, Sigma Aldrich, USA) were injected as a single dose on the first day. Specifically, furosemide was intraperitoneally injected within 30 min after kanamycin was injected subcutaneously (SC). One hour later, IP6 and/or fucoxanthin was intraperitoneally injected for 5 consecutive days. The ABR of mice was measured to evaluate their hearing threshold. In brief, measurements were performed on the scalps of mice under anesthesia by using subdermal needle electrodes placed at the vertex, below the pinna of the left ear (as a reference measurement), and below the contralateral ear (ground). The sound stimuli included clicks ([…]; 4, 8, and 12 kHz). The devices used for ABR measurement were specifically designed for animal experiments (BIOPAC System, USA). […] The ABR threshold was measured through detection of the presence of V waves. […] One week later, the hearing threshold of all groups of mice was measured using ABR instrument. […]"}, "[3]": {"tested_on": "kanamycin/furosemide-injected mice", "assay": "Loss of OHCs in cochlear tissues (immunohistochemical staining), kanamycin/furosemide-induced SNHL in mice", "format": "in vivo", "conditions": "IP6 80 mg/kg IP for 5 days in kanamycin/furosemide-injected mice", "experimental": "For the kanamycin-induced SNHL in mice, the schematic protocol for the dosing and timing of kanamycin, furosemide, IP6 and/or fucoxanthin was presented in FIG. 1B. Kanamycin (Sigma Aldrich, USA) was dissolved in PBS, and kanamycin (1 mg/g) and furosemide (0.1 mg/g, Sigma Aldrich, USA) were injected as a single dose on the first day. Specifically, furosemide was intraperitoneally injected within 30 min after kanamycin was injected subcutaneously (SC). One hour later, IP6 and/or fucoxanthin was intraperitoneally injected for 5 consecutive days. Experimental mice were anesthetized, and their cochlear tissues were isolated and dissected. For whole-mount dissection, the protocol detailed by Neal et al. was followed^[5]. In brief, the cochlea was decalcified for 1 hour using a decalcification solution purchased from Apex Engineering (Aurora, IL, USA). […] The images at three randomly-selected regions (300 μm length) in the apical, middle, and basal cochlear turns were acquired by using the same apparatus, and the loss of OHCs was manually counted. Average loss of OHCs was then calculated in apex, middle and base regions, respectively^[6]. Fluorescent images were taken with a Leica SP8 confocal fluorescence microscope. […] One week later, the hearing threshold of all groups of mice was measured using ABR instrument. […]"}, "mouse cochlear tissues": {"tested_on": "mouse cochlear tissues", "assay": "NanoString neuropathology gene expression analysis of cochlear tissues", "format": "in vivo, mice", "experimental": "Total mRNA was extracted from mouse cochlear tissues as per the protocol described in previous studies^[10, 11]. The expression profile of neuropathological genes was analyzed using a NanoString mouse neuropathology panel (NanoString Technologies, Seattle, WA, USA), which includes genes involved in neural cell types and neuropathological processes^[12, 13]. All analyses of genes or pathways scores were performed in accordance with the user manual of the nCounter Advanced Analysis Software and were described in detail in previous studies^[10, 11]. Cold Spring Biotech in Taiwan was responsible for performing the NanoString gene expression analysis and bioinformatics analyses."}, "[4]": {"parameters": "species or system mice", "conditions": "mouse, in vivo", "experimental": "as §1"}, "[5]": {"tested_on": "12-month-old C57BL/6J mice", "assay": "Loss of OHCs and IHCs in cochlear tissues (immunohistochemical staining), ARHL mouse model", "format": "in vivo", "conditions": "12-month-old mice"}, "cisplatin-injected mice [6]": {"tested_on": "cisplatin-injected mice", "assay": "Auditory brainstem response (ABR) hearing threshold, cisplatin-induced SNHL in mice", "format": "in vivo", "conditions": "cisplatin-injected mice (3 mg/kg IP, 5 days) with IP6 40 or 80 mg/kg IP; measured one week later"}, "[7]": {"conditions": "2% IP6 through drinking water for 10 months"}, "[8]": {"conditions": "IP6 80 mg/kg IP three days per week for 10 months"}},
  "data": [
    {"molecule": "O=P(O)(O)O[C@H]1[C@H](OP(=O)(O)O)[C@@H](OP(=O)(O)O)[C@H](OP(=O)(O)O)[C@@H](OP(=O)(O)O)[C@H]1OP(=O)(O)O", "note": "[IP6, inositol hexaphosphate]", "values": [
      {"measurement": "hearing function at the frequency of 12 kHz compared with the control group", "setting": "aging mice", "value": "significantly improved"},
      {"measurement": "loss of OHCs (Myo7A+) in the apex, middle, and base regions", "setting": "cisplatin-injected mice [1]; IP6 80 mg/kg IP 2 h before cisplatin 3 mg/kg IP, once per day for 5 days, compared with cisplatin-injected mice without IP6", "value": "significantly reduced"},
      {"measurement": "hearing threshold (ABR) of kanamycin/furosemide-injected mice", "setting": "[2]", "value": "significant reduction"},
      {"measurement": "loss of OHCs (Myo7A+) in the apex, middle and base regions of the cochlear tissues", "setting": "[3]", "value": "significantly reduced"},
      {"measurement": "carbohydrate metabolism: mRNA levels of Akt3, Slc1a1, and Slc1a2", "setting": "mouse cochlear tissues; IP6 treatment", "value": "upregulated"},
      {"measurement": "lipid metabolism: mRNA levels of Cers6, Dgkb, Dgke, B4galt6, and Pla2g4c", "setting": "mouse cochlear tissues; IP6 treatment, P<0.05", "value": "upregulated"},
      {"measurement": "microglia gene score: mRNA levels of Amigo1, Atp6v1a, and Ap3m2", "setting": "mouse cochlear tissues; after IP6 treatment (80 mg/kg), kanamycin/furosemide-injected mice, P<0.05", "value": "significantly upregulated"},
      {"measurement": "endothelial cell gene score: mRNA levels of Nrxn1 and Prkcb", "setting": "mouse cochlear tissues; after IP6 treatment (80 mg/kg), Nrxn1 P<0.01, Prkcb P<0.05", "value": "significantly upregulated"},
      {"measurement": "neuron score genes (Plcb4, Cacna1a, Calb1, Hen1, Cur1, Arhgap44, Gria4, Scn1a, Grik2, Cntnap1, Shank2, Lrrc4, Rab3a, Nrxn1, Adora1, Pak1, Frmpd4, Scn2a1, Dagla, Atcay)", "setting": "mouse cochlear tissues; after IP6 treatment (80 mg/kg), P<0.01", "value": "significantly upregulated"},
      {"measurement": "myelination gene score: mRNA levels of Cntnap1, Scn2a1, and Amigo1", "setting": "mouse cochlear tissues; after IP6 treatment, Cntnap1 P<0.01, Scn2a1 and Amigo1 P<0.05", "value": "significantly upregulated"},
      {"measurement": "vesicle trafficking gene scores: mRNA levels of Cacna1a, Calb1, Gabrb2, Syt4, Cnr1, Gria4, Grik2, Rims1, Cacnb4, Stx1b, Shank2, Fgf14, Syt13, Rab3a, Ncam1, Nrxn1, Adora1, Nova1, Gabra1, Rit2", "setting": "mouse cochlear tissues; after IP6 treatment, P<0.01", "value": "significantly upregulated"},
      {"measurement": "transcriptional patterns of astrocytes, endothelial cells, microglia, and neurons", "setting": "mouse cochlear tissues; kanamycin/furosemide-injected mice, 80 mg/kg IP6", "value": "reversed"},
      {"measurement": "serum alanine aminotransferase (ALT)", "setting": "[4]", "value": "no difference"},
      {"measurement": "serum aspartate aminotransferase (AST)", "setting": "[4]", "value": "no difference"},
      {"measurement": "serum total bilirubin", "setting": "[4]", "value": "no difference"},
      {"measurement": "loss of IHCs (Myo7A+) in the base regions", "setting": "[5]; [7]", "value": "moderately mitigated"},
      {"measurement": "loss of OHCs (Myo7A+) in the apex, middle, and base regions", "setting": "[5]; [7]", "value": "moderately mitigated"},
      {"measurement": "loss of IHCs (Myo7A+) in the base regions", "setting": "[5]; [8]", "value": "moderately mitigated"},
      {"measurement": "loss of OHCs (Myo7A+) in the apex, middle, and base regions", "setting": "[5]; [8]", "value": "moderately mitigated"},
      {"measurement": "hearing threshold (ABR) after IP6 treatment", "setting": "cisplatin-injected mice [6]", "value": "20 to 30", "unit": "db"}
    ]},
    {"molecule": "fucoxanthin", "values": [
      {"measurement": "hearing threshold (ABR) of kanamycin/furosemide-injected mice", "setting": "[2]", "value": "significant reduction"}
    ]},
    {"molecule": "N.N.[Cl][Pt][Cl]", "note": "[cisplatin, reference compound]", "values": [
      {"measurement": "loss of OHCs (Myo7A+) in the apex, middle, and base regions", "setting": "cisplatin-injected mice [1]; cisplatin 3 mg/kg IP once per day for 5 days, compared with the control group", "value": "significant loss"},
      {"measurement": "serum alanine aminotransferase (ALT)", "setting": "[4]", "value": "no difference"},
      {"measurement": "serum aspartate aminotransferase (AST)", "setting": "[4]", "value": "no difference"},
      {"measurement": "serum total bilirubin", "setting": "[4]", "value": "no difference"}
    ]}
  ]
}
